In series [1] the target is T1, human 5-HT2C (h5-HT2C) receptor (Homo sapiens, UniProt P28335).
T1 construct: host or cells: Flp-In T-REx 293 cells
T1 sequence (P28335 33-458): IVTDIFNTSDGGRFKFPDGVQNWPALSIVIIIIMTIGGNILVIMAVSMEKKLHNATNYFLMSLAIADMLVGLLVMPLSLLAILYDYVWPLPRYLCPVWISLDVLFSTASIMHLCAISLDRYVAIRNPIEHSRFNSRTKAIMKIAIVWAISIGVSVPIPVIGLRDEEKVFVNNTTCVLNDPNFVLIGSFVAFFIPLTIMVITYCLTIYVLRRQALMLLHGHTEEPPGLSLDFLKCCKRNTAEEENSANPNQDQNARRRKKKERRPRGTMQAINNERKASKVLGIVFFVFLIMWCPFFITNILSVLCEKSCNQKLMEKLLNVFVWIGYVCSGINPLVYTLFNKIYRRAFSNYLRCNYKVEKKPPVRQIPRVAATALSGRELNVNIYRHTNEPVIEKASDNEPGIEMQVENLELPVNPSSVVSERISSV
The experiment in a line: 5-HT2C receptor functional assay (Gq-mediated calcium flux) of saliva-hydrolyzed modified indole alkaloids. Type of series: cell-based. As to conditions: 5HT2C agonist activity, compounds hydrolyzed by treatment with human saliva; for EC50: Flp-In T-REx 293 cells expressing h5-HT2C, peak calcium flux; for Emax % 5-HT (± SEM): normalized to 5-HT (100%). On the technique in general: Calcium flux is commonly read through the fluorescence of an indicator in the cells.

For series [2], the target named is T2, human 5-HT2A (h5-HT2A) receptor (Homo sapiens, UniProt P28223).
T2 construct: host or cells: Flp-In T-REx 293 cells
The experiment in a line: 5-HT2A receptor functional assay (Gq-mediated calcium flux) of saliva-hydrolyzed modified indole alkaloids. Format: cell-based. As to conditions: 5HT2A agonist activity, compounds hydrolyzed by treatment with human saliva; for EC50: Flp-In T-REx 293 cells expressing h5-HT2A, peak calcium flux; for Emax % 5-HT (± SEM): normalized to 5-HT (100%).

In series [3] the target is T2, human 5-HT2A (h5-HT2A) receptor. The experiment in a line: 5-HT2A receptor functional assay (calcium flux) of modified indole alkaloids digested with calf intestinal alkaline phosphatase. Type of series: cell-based. The following applies: after 2 hours with 100 units calf intestinal alkaline phosphatase, pH 7.9, 25° C.; compared to 5-HT. The procedure: 1 mM of 4-3-(2-(dipropylamino)ethyl)-1H-indol-4-yl dihydrogen phosphate (Compound A) was incubated with 100 units of calf intestinal alkaline phosphatase for 2 hours in buffer containing 50 mM Potassium acetate, 20 mM Tris-acetate, 10 mM Magnesium acetate, and 100 μg/ml BSA at pH 7.9 and 25° C. 1 mM of 4-3-(2-(diisopropylamino)ethyl)-1H-indol-4-yl dihydrogen phosphate (Compound B) was incubated with 100 units of calf intestinal alkaline phosphatase for 2 hours in buffer containing 50 mM Potassium acetate, 20 mM Tris-acetate, 10 mM Magnesium acetate, and 100 μg/ml BSA at pH 7.9 and 25° C. The resulting solutions containing dephosphorylated products were used in a 5-HT2A receptor functional assay. […]
Before the experiment, plates were allowed to equilibrate to room temperature, and calcium flux was measured using a […] cellular screening system (Molecular Devices, Sunnyvale, CA). Plates were read for fluorescence initially for 10 s (1 read per second) to establish a baseline and then stimulated with drug dilutions or buffer and read for an additional 120 s. Peak fluorescence in each well was normalized to the maximum fold increase over baseline. […] Data were analyzed using the sigmoidal dose-response function of Prism 5.0 or 8.0 (GraphPad Software, San Diego, CA). Relative activity (RA) was expressed as the logarithm of the ratio of Emax over EC50 parameter estimates. […]

A short description of series [4]: Digestion of modified indole alkaloids with human salivary samples (LC-MS). Type of series: in vitro ADME. The following applies: 100 μM compound, 50 μL human saliva, 2 hours at 37° C., pH 7.5. Here is the method:
Human saliva samples were collected 25 minutes before food intake after 8 hours fasting from an adult subject with no clinical symptoms. For saliva collection, saliva samples were obtained by passive drool into sterile 10 mL centrifuge tubes over a 5-min period. Immediately after collection, saliva samples were centrifuged (500 g for 10 min at 4° C.) and the supernatant was recovered and used immediately or stored at −80° C. until further use.
Eleven 100-μL reaction mixtures were prepared, consisting of: • 50 mM HEPES pH 7.5 • 50 mM NaCl • 100 μM modified indole alkaloid product (from Reactions 3, 24, 39-47, respectively) • 50 μL, of human saliva sample • 2 mM calcium chloride • 5 mM magnesium chloride
The reaction mixtures were digested for 2 hours at 37° C., and heated to 80° C. for 5 minutes to terminate the reactions. The reaction mixtures were then centrifuged at 30,000 ref and the supernatant transferred to a fresh sample tube.
One microliter of the sample was injected onto a ZORBAX StableBond-C18, 1.8 um, 2.1×50 mm column at 20° C. using a 0.3 mL/min flow rate and major ion species were detected with a 6520 Accurate-Mass Q-TOF LC-MS (Agilent) in positive mode. The mobile phase consisted of a mixture of 0.1% formic acid in acetonitrile (v/v) and 0.1% formic acid in water (v/v) was eluted under the following gradient conditions (shown in relation to acetonitrile content): 0 min-10%, 6 min-100%, 7 min-10%, 14 min-10%. The mobile phase was delivered at a flow rate of 0.3 mL/min and the total analytical run time was 14 min.

T2 sequence (P28223 whole entry): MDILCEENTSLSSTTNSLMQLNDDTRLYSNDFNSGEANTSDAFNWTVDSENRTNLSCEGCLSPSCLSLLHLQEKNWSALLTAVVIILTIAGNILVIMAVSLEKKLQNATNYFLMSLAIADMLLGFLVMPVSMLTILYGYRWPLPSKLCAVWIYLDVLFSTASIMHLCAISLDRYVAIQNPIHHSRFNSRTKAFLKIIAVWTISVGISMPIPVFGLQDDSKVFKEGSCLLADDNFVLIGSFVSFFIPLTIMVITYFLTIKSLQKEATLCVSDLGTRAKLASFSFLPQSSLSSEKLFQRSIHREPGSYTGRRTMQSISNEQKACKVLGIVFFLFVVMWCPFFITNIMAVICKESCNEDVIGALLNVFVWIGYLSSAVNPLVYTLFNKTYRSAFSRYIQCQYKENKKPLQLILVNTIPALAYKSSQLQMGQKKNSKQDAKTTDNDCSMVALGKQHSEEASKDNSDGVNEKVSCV

Usually EC50 stands for the concentration at which the effect is half-maximal. `CCN(C)CCc1c[nH]c2cccc(O[C@H]3O[C@H](CO)[C@@H](O)[C@H](O)[C@H]3O)c12` (stereo in doubt) [Hydrolyzed Compound A-1, 2-((3-(2-(ethyl(methyl)amino)ethyl)-1H-indol-4-yl)oxy)-6-(hydroxymethyl)tetrahydro-2H-pyran-3,4,5-triol]: in series [1], the EC50 turned out to be 30.1 nM and the “Emax % 5-HT (± SEM)” value was 89.9 ± 2.1 % 5-HT. Besides, in series [2], the EC50 is 4.01 nM and the “Emax % 5-HT (± SEM)” value came to 96.7 ± 1.1 % 5-HT.

With `CCCN(C)CCc1c[nH]c2cccc(O[C@H]3O[C@H](CO)[C@@H](O)[C@H](O)[C@H]3O)c12` (stereo in doubt) [Hydrolyzed Compound A-2, 2-(hydroxymethyl)-6-((3-(2-(methyl(propyl)amino)ethyl)-1H-indol-4-yl)oxy)tetrahydro-2H-pyran-3,4,5-triol], in series [1], the half-maximal effective concentration (EC50) is 47.8 nM and the “Emax % 5-HT (± SEM)” value turned out to be 90.7 ± 1.5 % 5-HT. Also, in series [2], the EC50 was 3.83 nM and the “Emax % 5-HT (± SEM)” value came to 98.0 ± 1.1 % 5-HT.

As for `CCN(CC)CCc1c[nH]c2cccc(O[C@H]3O[C@H](CO)[C@@H](O)[C@H](O)[C@H]3O)c12` (stereo in doubt) [Hydrolyzed Compound A-4, 2-((3-(2-(diethylamino)ethyl)-1H-indol-4-yl)oxy)-6-(hydroxymethyl)tetrahydro-2H-pyran-3,4,5-triol], in series [1], the 50% effective concentration (EC50) is 258 nM and the “Emax % 5-HT (± SEM)” value came to 80.1 ± 1.9 % 5-HT. In series [2], the concentration for a half-maximal effect (EC50) amounted to 6.48 nM and the “Emax % 5-HT (± SEM)” value worked out at 100.1 ± 1.1 % 5-HT.

For `CCCN(CCC)CCc1c[nH]c2cccc(O[C@H]3O[C@H](CO)[C@@H](O)[C@H](O)[C@H]3O)c12` (stereo in doubt) [Hydrolyzed Compound A-6, 2-((3-(2-(dipropylamino)ethyl)-1H-indol-4-yl)oxy)-6-(hydroxymethyl)tetrahydro-2H-pyran-3,4,5-triol], the results for the EC50 in series [1] and in series [2] were 214 nM and 1.65 nM, respectively. Also, the “Emax % 5-HT (± SEM)” value amounted to 84.2 ± 1.0 % 5-HT in series [1] and 103.2 ± 1.0 % 5-HT in series [2].

With `CC(C)N(CCc1c[nH]c2cccc(O[C@H]3O[C@H](CO)[C@@H](O)[C@H](O)[C@H]3O)c12)C(C)C` (stereo in doubt) [Hydrolyzed Compound A-7, 2-((3-(2-(diisopropylamino)ethyl)-1H-indol-4-yl)oxy)-6-(hydroxymethyl)tetrahydro-2H-pyran-3,4,5-triol], in series [1], the EC50 worked out at 1550 nM and the “Emax % 5-HT (± SEM)” value came to 94.4 ± 1.2 % 5-HT. For the same molecule, in series [2], the EC50 was found to be 6.81 nM and the “Emax % 5-HT (± SEM)” value was found to be 103 ± 1.2 % 5-HT.

In the case of `C=CCN(C)CCc1c[nH]c2cccc(O[C@H]3O[C@H](CO)[C@@H](O)[C@H](O)[C@H]3O)c12` (stereo in doubt) [Hydrolyzed Compound A-8, 2-((3-(2-(allyl(methyl)amino)ethyl)-1H-indol-4-yl)oxy)-6-(hydroxymethyl)tetrahydro-2H-pyran-3,4,5-triol], in series [1], the EC50 came to 49.2 nM and the “Emax % 5-HT (± SEM)” value was determined as 81.5 ± 2.4 % 5-HT. In series [2], the concentration for a half-maximal effect (EC50) amounted to 3.66 nM and the “Emax % 5-HT (± SEM)” value was 102 ± 1.0 % 5-HT.

As to `CN(CCc1c[nH]c2cccc(O[C@H]3O[C@H](CO)[C@@H](O)[C@H](O)[C@H]3O)c12)C1CC1` (stereo in doubt) [Hydrolyzed Compound A-9, 2-((3-(2-(cyclopropyl(methyl)amino)ethyl)-1H-indol-4-yl)oxy)-6-(hydroxymethyl)tetrahydro-2H-pyran-3,4,5-triol], the figures for the EC50 in series [1] and in series [2] were 149 nM and 5.1 nM, respectively. For the same molecule, the “Emax % 5-HT (± SEM)” value is reported as 79.1 ± 6.1 % 5-HT in series [1] and 99.4 ± 2.0 % 5-HT in series [2].

In the case of `CCCN(CCC)CCc1c[nH]c2cccc(OP(=O)(O)O)c12` [Compound A, 4-3-(2-(dipropylamino)ethyl)-1H-indol-4-yl dihydrogen phosphate], in series [3], the “functional agonism of 5HT2A receptor, peak calcium flux response (FIG. 5)” value is recorded as 5HT2A agonism.

As to `CC(C)N(CCc1c[nH]c2cccc(OP(=O)(O)O)c12)C(C)C` [Compound B, 4-3-(2-(diisopropylamino)ethyl)-1H-indol-4-yl dihydrogen phosphate], the “functional agonism of 5HT2A receptor, peak calcium flux response (FIG. 5)” value in series [3] was found to be 5HT2A agonism.

In the case of `CC(C)N(CCc1c[nH]c2cccc(OC(=O)CC(=O)O)c12)C(C)C` [Compound D, 3-((3-(2-(diisopropylamino)ethyl)-1H-indol-4-yl)oxy)-3-oxopropanoic acid], the “conversion by human saliva to 4-hydroxy-N,N-diisopropyltryptamine (LC-MS)” value (“conversion by human saliva” for short) in series [4] is recorded as “completely hydrolyzed”.

`CC(=O)CC(=O)Oc1cccc2[nH]cc(CCN(C(C)C)C(C)C)c12` [Compound E, 3-(2-(diisopropylamino)ethyl)-1H-indol-4-yl 3-oxobutanoate]: the “conversion by human saliva” value in series [4] is “completely hydrolyzed”.

In the case of `CCCN(CC)CCc1c[nH]c2cccc(O[C@H]3O[C@H](CO)[C@@H](O)[C@H](O)[C@H]3O)c12` [Hydrolyzed Compound A-5, 2-((3-(2-(ethyl(propyl)amino)ethyl)-1H1-indol-4-yl)oxy)-6-(hydroxymethyl)tetrahydro-2H-pyran-3,4,5-triol], in series [1], the EC50 stood at 117 nM and the “Emax % 5-HT (± SEM)” value turned out to be 89.4 ± 2.6 % 5-HT. In series [2], the concentration for a half-maximal effect (EC50) amounted to 3.16 nM and the “Emax % 5-HT (± SEM)” value came out at 99.4 ± 1.2 % 5-HT.

In the case of `CC(C)N(CCc1c[nH]c2cccc(O[C@H]3O[C@H](CO)[C@@H](O)[C@H](O)[C@H]3O)c12)C(C)C` [Hydrolyzed Compound A-7, 2-((3-(2-(diisopropylamino)ethyl)-1H-indol-4-yl)oxy)-6-(hydroxymethyl)tetrahydro-2H-pyran-3,4,5-triol], in series [4], the “conversion by human saliva” value is listed as “completely deglycosylated”.
